From ChEMBL document CHEMBL5029162, “4-Pyridone-3-carboxylic acid as a benzoic acid bioisostere: Design, synthesis, and evaluation of EP300/CBP histone acetyltransferase inhibitors” (Bioorg Med Chem Lett, 2021) come the findings set out here.

What is called IC50 is the midpoint of a concentration-inhibition curve.

One experiment deals with CREB-binding protein (Homo sapiens, UniProt Q92793). Nature of the experiment: Inhibition of CBP (unknown origin).
Experiment [1] concerns the target Histone acetyltransferase KAT6B (Homo sapiens, UniProt Q8WYB5). Kind of experiment: Inhibition of MYST4 (unknown origin).
Experiment [2] deals with Histone acetyltransferase KAT2A (Homo sapiens, UniProt Q92830). Kind of experiment: Inhibition of GCN5 (unknown origin).
Histone acetyltransferase KAT2A, sequence (Q92830 whole entry): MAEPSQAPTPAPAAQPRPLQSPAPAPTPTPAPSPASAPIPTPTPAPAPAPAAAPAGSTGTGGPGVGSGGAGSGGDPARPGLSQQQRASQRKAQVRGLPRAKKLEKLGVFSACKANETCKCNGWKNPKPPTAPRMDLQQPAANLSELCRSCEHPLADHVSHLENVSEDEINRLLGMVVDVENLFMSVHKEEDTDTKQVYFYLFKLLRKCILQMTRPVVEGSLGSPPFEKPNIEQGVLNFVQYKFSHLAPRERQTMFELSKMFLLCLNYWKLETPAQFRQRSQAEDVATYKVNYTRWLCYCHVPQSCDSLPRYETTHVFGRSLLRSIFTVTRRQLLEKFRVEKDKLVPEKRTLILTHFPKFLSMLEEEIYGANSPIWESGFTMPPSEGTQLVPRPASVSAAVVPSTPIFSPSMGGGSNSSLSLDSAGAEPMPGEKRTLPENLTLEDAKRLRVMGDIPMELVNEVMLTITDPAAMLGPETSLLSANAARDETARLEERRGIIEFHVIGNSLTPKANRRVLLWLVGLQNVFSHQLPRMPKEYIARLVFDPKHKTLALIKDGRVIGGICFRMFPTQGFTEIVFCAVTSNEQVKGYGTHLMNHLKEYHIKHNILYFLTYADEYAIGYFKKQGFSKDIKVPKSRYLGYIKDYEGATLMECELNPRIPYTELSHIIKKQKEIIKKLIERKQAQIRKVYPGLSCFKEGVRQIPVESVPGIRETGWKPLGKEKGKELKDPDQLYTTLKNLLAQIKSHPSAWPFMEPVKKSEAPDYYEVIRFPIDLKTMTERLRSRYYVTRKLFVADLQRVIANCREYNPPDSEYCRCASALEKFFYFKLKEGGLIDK

CREB-binding protein, sequence (Q92793 whole entry): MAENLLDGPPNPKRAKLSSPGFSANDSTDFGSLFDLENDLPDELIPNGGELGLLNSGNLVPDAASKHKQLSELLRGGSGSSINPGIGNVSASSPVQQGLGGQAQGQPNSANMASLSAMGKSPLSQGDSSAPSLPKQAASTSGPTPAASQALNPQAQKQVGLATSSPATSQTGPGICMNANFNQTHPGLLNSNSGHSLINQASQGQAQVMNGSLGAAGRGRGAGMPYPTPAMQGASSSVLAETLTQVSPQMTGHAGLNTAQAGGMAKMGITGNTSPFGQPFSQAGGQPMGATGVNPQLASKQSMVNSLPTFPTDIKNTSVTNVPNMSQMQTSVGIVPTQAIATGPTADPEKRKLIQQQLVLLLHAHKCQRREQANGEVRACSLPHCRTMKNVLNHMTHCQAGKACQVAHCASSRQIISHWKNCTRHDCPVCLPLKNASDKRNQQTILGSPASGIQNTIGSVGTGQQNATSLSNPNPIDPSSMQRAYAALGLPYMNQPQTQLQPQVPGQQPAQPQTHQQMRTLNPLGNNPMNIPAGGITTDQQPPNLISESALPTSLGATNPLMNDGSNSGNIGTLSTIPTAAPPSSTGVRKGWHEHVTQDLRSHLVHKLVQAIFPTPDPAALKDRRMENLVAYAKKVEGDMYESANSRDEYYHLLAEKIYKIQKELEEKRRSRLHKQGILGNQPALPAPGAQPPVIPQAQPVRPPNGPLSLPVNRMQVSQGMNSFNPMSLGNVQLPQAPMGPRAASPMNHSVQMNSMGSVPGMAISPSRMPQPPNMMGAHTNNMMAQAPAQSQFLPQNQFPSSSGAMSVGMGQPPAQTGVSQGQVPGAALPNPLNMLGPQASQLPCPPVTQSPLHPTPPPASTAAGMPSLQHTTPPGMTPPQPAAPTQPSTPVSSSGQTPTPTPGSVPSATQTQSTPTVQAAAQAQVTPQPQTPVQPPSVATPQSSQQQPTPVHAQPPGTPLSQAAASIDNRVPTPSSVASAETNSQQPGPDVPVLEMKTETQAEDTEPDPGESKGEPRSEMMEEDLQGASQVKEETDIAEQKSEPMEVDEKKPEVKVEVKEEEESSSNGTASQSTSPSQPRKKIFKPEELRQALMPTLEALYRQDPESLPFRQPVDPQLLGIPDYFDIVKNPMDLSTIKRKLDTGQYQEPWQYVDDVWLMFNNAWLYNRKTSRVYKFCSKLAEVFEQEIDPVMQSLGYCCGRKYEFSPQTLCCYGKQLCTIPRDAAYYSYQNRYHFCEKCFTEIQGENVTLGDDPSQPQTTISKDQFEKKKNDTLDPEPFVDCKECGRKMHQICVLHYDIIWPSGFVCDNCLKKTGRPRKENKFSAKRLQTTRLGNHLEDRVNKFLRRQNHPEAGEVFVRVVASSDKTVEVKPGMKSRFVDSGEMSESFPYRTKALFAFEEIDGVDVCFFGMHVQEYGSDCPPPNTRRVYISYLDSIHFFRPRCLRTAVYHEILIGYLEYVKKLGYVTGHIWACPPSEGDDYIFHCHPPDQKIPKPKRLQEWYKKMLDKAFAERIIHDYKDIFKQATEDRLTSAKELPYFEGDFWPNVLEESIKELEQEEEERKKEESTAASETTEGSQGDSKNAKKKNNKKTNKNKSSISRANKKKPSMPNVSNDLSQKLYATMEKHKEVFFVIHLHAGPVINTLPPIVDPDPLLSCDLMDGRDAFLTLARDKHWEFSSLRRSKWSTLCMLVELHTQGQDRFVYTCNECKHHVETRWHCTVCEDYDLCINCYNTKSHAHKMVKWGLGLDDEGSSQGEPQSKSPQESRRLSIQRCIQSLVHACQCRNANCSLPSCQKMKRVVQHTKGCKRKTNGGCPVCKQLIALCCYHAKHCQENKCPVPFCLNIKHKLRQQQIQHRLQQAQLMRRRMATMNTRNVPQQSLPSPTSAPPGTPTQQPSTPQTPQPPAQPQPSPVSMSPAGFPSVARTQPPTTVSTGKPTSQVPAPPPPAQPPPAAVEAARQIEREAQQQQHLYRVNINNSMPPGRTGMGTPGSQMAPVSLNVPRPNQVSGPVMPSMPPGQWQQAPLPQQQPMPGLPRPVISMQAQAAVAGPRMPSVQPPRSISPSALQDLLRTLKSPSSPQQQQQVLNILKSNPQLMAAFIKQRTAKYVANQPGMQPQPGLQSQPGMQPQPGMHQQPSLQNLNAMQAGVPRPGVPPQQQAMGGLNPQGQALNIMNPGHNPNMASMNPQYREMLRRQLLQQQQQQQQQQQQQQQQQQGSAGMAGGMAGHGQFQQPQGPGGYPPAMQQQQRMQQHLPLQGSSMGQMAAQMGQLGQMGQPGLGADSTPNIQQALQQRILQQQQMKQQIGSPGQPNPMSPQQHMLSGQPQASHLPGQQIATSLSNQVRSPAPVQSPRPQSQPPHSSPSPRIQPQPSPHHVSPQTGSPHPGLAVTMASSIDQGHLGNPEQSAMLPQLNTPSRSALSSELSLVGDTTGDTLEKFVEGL

Consider `COC1=C(Cc2ccc(-c3cn(C)cc(C(=O)O)c3=O)s2)C(=O)N(c2ccc3ccccc3c2)C1`, for which the values for the half-inhibitory concentration (IC50) (at CREB-binding protein; in experiment [1]; in experiment [2]) were 3.4 µM, more than 50 µM and more than 50 µM, respectively.

As for `COC1=C(Cc2ccc(-c3cn(Cc4ccccc4)cc(C(=O)O)c3=O)s2)C(=O)N(c2ccc3ccccc3c2)C1`, the figures for the half-inhibitory concentration (IC50) (at CREB-binding protein; in experiment [1]; in experiment [2]) were 1.3 µM, more than 50 µM and more than 50 µM, respectively.
